In patent publication US9284309B2, “Di- and tri-heteroaryl derivatives as inhibitors of protein aggregation” (Neuropore Therapies, Inc., priority 2012, dated 2016):

Target: T1, α-synuclein (Homo sapiens, UniProt P37840)
T1 construct: expressed in transfected cells
Experiment: calcein assay of membrane integrity (reversal of α-synuclein-mediated disruption of cell membranes, FLIPR)
Assay type: cell-based
Conditions: 0.01 μM test compound; neuronal cells infected with LV-α-synuclein, 24 h treatment in serum free media, calcein retention
Description: (b) Neuronal Activity/Integrity. Toxic aggregates of α-synuclein disrupt the integrity of cell membranes. The disruptive effect of α-synuclein and the ability of test compounds to reverse the α-synuclein-mediated disruption of cell membranes are measured using calcein. Calcein is a fluorescent marker that is retained in healthy cells but is not retained in cells with diminished cellular integrity. To ascertain the effects on neuronal activity, cells are infected with LV-α-synuclein for 24 h, treated with test compound at a range of concentrations, for example 0.01-10 μM, for 24 h in serum free media, loaded with Fluo-4 or calcein, and analyzed by FLIPR assay to determine Ca^2+ and calcein levels. […] Test compounds are evaluated for the ability to restore concentrations of Ca^2+ to those in cells not infected with LV-α-synuclein. […] Test compounds are evaluated, in a concentration-dependent manner, for their ability to reverse the effect of α-synuclein on levels of calcein.

For `CCCCn1nnc(C(Cc2c[nH]c3ccccc23)NC(=O)c2cnc(N3CCN(C)CC3)s2)n1` (stereo not drawn) [Example 5, N-(1-(2-butyl-2H-tetrazol-5-yl)-2-(1H-indol-3-yl)ethyl)-2-(4-methylpiperazin-1-yl)thiazole-5-carboxamide], which “Percent reversal of α-Syn mediated disruption of cell integrity” value (“Percent reversal” for short) is on record?
Its value is 110%.

With `CCc1csc(C(Cc2c[nH]c3ccccc23)NC(=O)c2cnc(N3CCN(C)CC3)s2)n1` (stereo not drawn) [Example 6, N-(1-(4-ethylthiazol-2-yl)-2-(1H-indol-3-yl)ethyl)-2-(4-methylpiperazin-1-yl)thiazole-5-carboxamide] as the molecule, how does the “Percent reversal” value read?
Its value is 137%.

Which “Percent reversal” value does the source give for `CCCCNC(=N)C(Cc1c[nH]c2ccccc12)NC(=O)c1cnc(N2CCN(C)CC2)s1` (stereo not drawn) [Example 7, N-(1-(butylamino)-1-imino-3-(1H-indol-3-yl)propan-2-yl)-2-(4-methylpiperazin-1-yl)thiazole-5-carboxamide] here?
The value was 189%.

How did the “Percent reversal” value turn out when `CCCCNNC(=O)C(Cc1c[nH]c2ccccc12)NC(=O)c1cnc(N2CCN(C)CC2)s1` (stereo not drawn) [Example 8, N-(1-(2-butylhydrazinyl)-3-(1H-indol-3-yl)-1-oxopropan-2-yl)-2-(4-methylpiperazin-1-yl)thiazole-5-carboxamide] was run?
The value was 135%.

`CCCc1nnc(C(Cc2c[nH]c3ccccc23)NC(=O)c2cnc(N3CCN(C)CC3)s2)s1` (stereo not drawn) [Example 9, N-(2-(1H-indol-3-yl)-1-(5-propyl-1,3,4-thiadiazol-2-yl)ethyl)-2-(4-methylpiperazin-1-yl)thiazole-5-carboxamide] was tested. Which “Percent reversal” value did it give?
The value was 187%.

`CCCc1nnc(C(Cc2c[nH]c3ccccc23)NC(=O)c2cnc(N3CCN(C)CC3)s2)[nH]1` (stereo not drawn) [Example 10, N-(2-(1H-indol-3-yl)-1-(5-propyl-4H-1,2,4-triazol-3-yl)ethyl)-2-(4-methylpiperazin-1-yl)thiazole-5-carboxamide] was tested. Which “Percent reversal” value did it give?
The value was 115%.
